“Also recorded” adds a separate entry of the source. No end group written: not given here.
Columns and labels:
[1] = tested on: oligomeric versus monomeric Aβ1-42 (Aβ1-42-biotin bait); experiment: Affinity capture interactome Experiment III (oAβ1-42-biotin vs mAβ1-42-biotin); settings: TMT; for Experiment III oAβ1-42-B/mAβ1-42-B Ratio: oligomeric versus monomeric bait, human frontal lobe digitonin extract, pH 8.0, 4°C overnight
Aβ1-42-TMR = Aβ1-42-TMR (Homo sapiens, UniProt P05067); experiment: FRET competition assay (Edans-SST14 / Aβ1-42-TMR)
Aβ1-40 = target: T1, Aβ1-40 (Homo sapiens, UniProt P05067); experiment: ThT fluorescence Aβ1-40 aggregation assay; type: biochemical; settings: 5 to 10 times higher peptide concentrations
T1 construct: Aβ1-40 (catalog number AS-24236); purchased Anaspec, Inc. (Fremont, CA, USA) AS-24236; host or cells: synthetic peptide
Description: (§1) Next, Western blot analyses of ThT assay fractions were undertaken without or with prior boiling in SDS. […] Only when SDS was present in the sample buffer, low mass bands appeared in the Western blot that migrated at a level expected for the monomeric Aβ peptide, consistent with the interpretation that these peptides were released from larger oligomeric or fibrillar aggregates under denaturing conditions (see also Figure 5).
(§2) Assay procedures were largely based on a protocol described by Sarah Linse’s group ([Hellstrand et al., 2010]). […] 100 μL of peptide solutions were supplemented with 25 μM thioflavin T (ThT) (catalog number T3516, Sigma-Aldrich Canada, Oakville, ON, Canada) and loaded into 96-Well Half-Area Microplates (catalog number 675096, Greiner Bio One International, Kremsmünster, Austria). The subsequent plate incubation proceeded at 37°C with shaking at 700 rpm for 4 of every 5 min in a microplate reader (CLARIOstar, BMG Labtech, Guelph, ON, Canada) for overall durations specified in individual figures. ThT fluorescence was measured every 5 min at excitation and emission wavelengths of 444 nm and 485 nm, respectively.

Aβ1-42 [2] = target: T2, Aβ1-42 (Homo sapiens, UniProt P05067); experiment: Thioflavin T (ThT) fluorescence Aβ1-42 aggregation assay; type: biochemical
T2 construct: purchased Anaspec, Inc. (Fremont, CA, USA) AS-24224; host or cells: synthetic peptide
Procedure: as §2

Aβ1-42 [3] = target: T2, Aβ1-42; experiment: Western blot / silver stain detection of Aβ1-42 after incubation with SST14 or CST17; type: biochemical
Procedure: Initially, we were interested in observing the influence of incubation time on sample composition (Figure 5B).

Aβ1-42 [4] = target: T2, Aβ1-42; experiment: Western blot of ThT assay fractions: oligomeric complexes of Aβ1-42; type: biochemical; settings: for SDS-stable complex with three Aβ1-42 peptides: five-fold increased Aβ1-42 level
Description: as §1

[5] = tested on: tau phosphorylated at pSer202/pThr205 (AT8) and pThr231 (AT180) in primary hippocampal neurons; experiment: Primary hippocampal neuron tau phosphorylation assay (Western blot); settings: for effect on oAβ1-42-induced tau hyperphosphorylation: peptide added together with oAβ1-42; for reduction in tau phosphorylation at AT8, pre-aggregated peptide alone: peptide subjected to pre-aggregation step, no Aβ
[6] = tested on: oligomeric Aβ1-42 (oAβ1-42-biotin bait); experiment: Affinity capture interactome Experiment II (C-terminally tethered oAβ1-42-biotin vs biotin); settings: enrichment relative to biotin-only negative control; human frontal lobe digitonin extract; TMT; pH 8.0, 4°C overnight
[7] = tested on: Aβ1-42 and Aβ17-42 biotin baits; experiment: iTRAQ affinity capture with four baits (biotin, biotin-Aβ1-42, Aβ1-42-biotin, Aβ17-42-biotin); type: binding; settings: oAβ1-42-biotin versus N-terminally biotinylated Aβ1-42, Aβ17-42-biotin and biotin; human frontal lobe extract
Description: This conclusion was strengthened by the fact that this peptide is naturally preceded by a tryptic cleavage site and the exquisite match between observed and in silico predicted fragment ions (Figure 2B). In light of the high intensity ion counts of fragments observed for this peptide and its robust co-enrichment with oAβ1-42-B in three biological replicates (Figure 2C), it first seemed puzzling that the identification of this protein group was not corroborated by other spectra that map to sequences outside of the ‘NFFWK’ sequence stretch. Searching for a plausible explanation, it became apparent that preprosomatostatin and preprocortistatin give rise to cyclic neuropeptide hormones through a series of posttranslational trimming steps, and the ‘NFFWK’ peptide is the only tryptic peptide derived from the mature hormone that is of sufficient length and distinct sequence to be readily identifiable by MS (Figure 2A). […] This conclusion was further corroborated by two additional PSMs that mapped to regions outside the SST14 neuropeptide sequence and one additional five amino acid peptide of the sequence ‘TFTSC’ that could be assigned (albeit not unambiguously) to the mature SST14 neuropeptide sequence itself.

T2 sequence (P05067 672-713 limits assumed): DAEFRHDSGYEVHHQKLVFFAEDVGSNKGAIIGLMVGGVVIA
T1 sequence (P05067 672-711 limits assumed): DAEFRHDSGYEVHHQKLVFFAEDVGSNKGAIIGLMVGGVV
Aβ1-42-TMR, sequence (P05067 672-713 limits assumed): as the sequence (P05067 672-713 limits assumed) above

## 2,4-dienoyl-CoA reductase, mitochondrial: human brain protein
[1]
  Experiment III oAβ1-42-B/mAβ1-42-B Ratio: 4.32

## C[C@H](N)C(=O)NCC(=O)N[C@H]1CSSC[C@@H](C(=O)O)NC(=O)[C@H](CO)NC(=O)[C@H]([C@@H](C)O)NC(=O)[C@H](Cc2ccccc2)NC(=O)[C@H]([C@@H](C)O)NC(=O)[C@H](CCCCN)NC(=O)[C@H](Cc2c[nH]c3ccccc23)NC(=O)[C@H](Cc2ccccc2)NC(=O)[C@H](Cc2ccccc2)NC(=O)[C@H](CC(N)=O)NC(=O)[C@H](CCCCN)NC1=O [SST14, somatostatin-14]
Aβ1-42-TMR
  EC50: 12.7 µM

## ATP synthase subunit beta, mitochondrial: human brain protein
[1]
  Experiment III oAβ1-42-B/mAβ1-42-B Ratio: 2.61

## Aβ1-40: synthetic human Aβ1-40, Anaspec AS-24236
Aβ1-40; peptide alone
  lag phase of Aβ1-40 aggregation: 45 min

## CST17: preprocortistatin-derived regulatory peptide, Bachem H-5536
Aβ1-42 [2]; 5 to 10 times higher peptide concentrations, SST14 not shown
  lag phase extension of Aβ (Aβ1-42) aggregation: approximately one hour
Aβ1-42 [2]; ThT, 37°C
  concentration dependence of effect on Aβ1-42 aggregation: concentration-dependent inhibition of Aβ1-42-dependent ThT fluorescence
Aβ1-42 [2]; compared with SST14 (at 15 μM in ThT assay)
  relative potency versus SST14 in interfering with Aβ1-42 aggregation: more potent in this regard than SST14; also recorded: even more pronounced effects on Aβ aggregation than SST14
Aβ1-42 [2]; peptide 15 μM, 37°C, 25 μM ThT
  inhibition of Aβ1-42-dependent ThT incorporation: completely abrogated ThT incorporation
Aβ1-40; SST14 not shown
  lag phase extension of Aβ (Aβ1-40) aggregation: approximately one hour
Aβ1-42 [3]; 18 hr incubation, 6E10 Western blot
  intensity of HMM 6E10 signals: only very weak HMM signals
Aβ1-42 [3]; 18 hr incubation, varying SST14 or CST17 concentration
  concentration dependence of 6E10-reactive blot signals: inverse correlation
Aβ1-42 [3]; 18 hr incubation, 4G8 and 12F4 not shown
  masking of Aβ1-42 detection by antibodies 6E10, 4G8, 12F4: masked the ability of these antibodies to bind to Aβ1-42
Aβ1-42 [3]; silver-stain of same fractions
  silver-stain Aβ1-42 signal: relatively stronger Aβ1-42 signals
Aβ1-42 [4]; Western blot lanes 17-20
  intensity of homodimeric Aβ1-42 bands: reduced
Aβ1-42 [4]; Western blot, x-42 and 6E10 antibodies
  size of SDS-resistant heterodimeric complex with mAβ1-42: 5-6 kDa
Aβ1-42 [4]; boiled in SDS
  detection of 50-60 kDa bands by antibody directed against C-terminus of Aβ1-42: escaped detection with an antibody directed against the C-terminus of Aβ1-42
Aβ1-42 [4]; Western blot
  SDS-stable complex with three Aβ1-42 peptides: occasionally observed signals that migrated at molecular masses expected for SDS-stable complexes consisting of three Aβ1-42 peptides
[5]
  effect on oAβ1-42-induced tau hyperphosphorylation: did not prevent the anticipated tau hyperphosphosphorylation-inducing effect of oAβ1-42 exposure
[5]; pre-incubated peptide 4 µM + mAβ1-42 5 µM, 24 hr exposure
  potentiation of tau hyperphosphorylation with monomeric Aβ1-42: potentiate tau hyperphosphorylation

## CST29: preprocortistatin-derived regulatory peptide, Bachem H-6458 (QEGAPPQQSARRDRMPCRNFFWKTFSSCK; ends and bridges not checked; cysteine pairing not given here; UniProt O00230 77-105, looked up)
[5]
  effect on oAβ1-42-induced tau hyperphosphorylation: did not prevent the anticipated tau hyperphosphosphorylation-inducing effect of oAβ1-42 exposure

## Carbohydrate kinase domain-containing protein: human brain protein
[6]
  Experiment II oAβ1-42-B/B Ratio: 2.17
[1]
  Experiment III oAβ1-42-B/mAβ1-42-B Ratio: 1.72

## Cathepsin D: human brain protein
[1]
  Experiment III oAβ1-42-B/mAβ1-42-B Ratio: 2.10

## Cofilin-1: human brain protein
[6]
  Experiment II oAβ1-42-B/B Ratio: 1.75
[1]
  Experiment III oAβ1-42-B/mAβ1-42-B Ratio: 5.34

## Dihydropyrimidinase-related protein 1: human brain protein
[6]
  Experiment II oAβ1-42-B/B Ratio: 1.39
[1]
  Experiment III oAβ1-42-B/mAβ1-42-B Ratio: 3.71

## Dihydropyrimidinase-related protein 3: human brain protein
[6]
  Experiment II oAβ1-42-B/B Ratio: 1.42
[1]
  Experiment III oAβ1-42-B/mAβ1-42-B Ratio: 3.40

## DnaJ homolog subfamily A member 2: human brain protein
[1]
  Experiment III oAβ1-42-B/mAβ1-42-B Ratio: 6.10

## Interleukin enhancer-binding factor 2: human brain protein
[1]
  Experiment III oAβ1-42-B/mAβ1-42-B Ratio: 1.41

## NFFWK
[7]
  capture by Aβ baits (iTRAQ signature ion intensity): the free N-terminus is indeed essential for this peptide-peptide interaction
[1]; Experiment III, human frontal lobe extract
  binding preference for oligomeric versus monomeric Aβ1-42-biotin (in words): binds preferentially to oligomeric (pre-aggregated) but not monomeric Aβ1-42-biotin

## Pyruvate kinase isozymes M1/M2: human brain protein
[6]
  Experiment II oAβ1-42-B/B Ratio: 1.68
[1]
  Experiment III oAβ1-42-B/mAβ1-42-B Ratio: 4.33

## Ras-related protein Rab-1A: human brain protein
[1]
  Experiment III oAβ1-42-B/mAβ1-42-B Ratio: 3.28

## SST28: longer bioactive version of somatostatin, Anaspec AS-22902 (SANSNPAMAPRERKAGCKNFFWKTFTSC; ends and bridges not checked; cysteine pairing not given here; UniProt P61278 89-116, looked up)
[5]
  effect on oAβ1-42-induced tau hyperphosphorylation: did not prevent the anticipated tau hyperphosphosphorylation-inducing effect of oAβ1-42 exposure

## Transforming protein RhoA: human brain protein
[1]
  Experiment III oAβ1-42-B/mAβ1-42-B Ratio: 5.74

## [Arg8]-vasopressin [AVP]
Aβ1-42 [2]; 15 μM SST14 (or control peptide), SEC-purified Aβ1-42, 25 μM ThT, 37°C, shaking 700 rpm
  lag phase extension of Aβ1-42 aggregation: No delay was observed
Aβ1-42 [4]; 18 hr co-incubation, 6E10
  formation of 50-60 kDa Aβ1-42 bands (in words): not seen in samples incubated either without these peptides or with AVP
Aβ1-42 [4]; Western blot
  SDS-stable complex with three Aβ1-42 peptides: never observed in fractions lacking SST14 (or CST17) or containing AVP
[5]
  reduction in tau phosphorylation at AT8, pre-aggregated peptide alone: not seen

## bombesin
[5]
  reduction in tau phosphorylation at AT8, pre-aggregated peptide alone: not seen

## oxytocin: control neuropeptide, Anaspec AS-24275
[5]
  reduction in tau phosphorylation at AT8, pre-aggregated peptide alone: not seen

Reference: article PMC5505701, “Somatostatin binds to the human amyloid β peptide and favors the formation of distinct oligomers” (eLife, 2017)
